No end group written: not given here.
What was measured:
[1] = test system: mouse (C57Black/J); experiment: Tail suspension test (TST); assay type: in vivo; conditions: IV 100 μl at 1 μM per animal; 30 min after injection
Description: The inventors conducted three types of behavioral experiments that are regarded as classical for determining the antidepressant activity of a substance (Nestler E. J., Gould E., Manji H., Buncan M., Duman R. S., Greshenfeld H. K., Hen, R. et al. “Preclinical models: status of basic research in depression” Biol Psychiatry. 15, 503-528 (2002) (20) and Cryan, J. & Holmes, A. “The ascent of mouse: advances in modeling human depression and anxiety” Nat Rev Drug Discov. 4, 775-790 (2005) (21)). The effects of the propeptide of the present invention were compared with those of the saline solution in which it is dissolved and with those of fluoxetine, one of the most-used antidepressants in clinical practice. The mouse strain used is C57Black/J strain. TREK-1^−/− mice were also measured in these various tests.
In the next two tests, the propeptide of the present invention was administered by the IV route at a rate of 100 μl at 1 μM per animal.
B. Tail Suspension Test (TST)
(see Cryan, J. & Holmes, A. (2005) (21) and Ripoll, N., David, D., Dailly, E., Hascoet, M. & Bourin, M. “Antidepressant-like effects in various mice strains in the tail suspension” Behav Brain Res. 143(2:193-200 (2003) (22).)
The experiment, 30 min after injection of the test substance in the mouse, consists of suspending the mouse by the tail by means of an adhesive ribbon and measuring the immobility time for 6 min.

[2] = molecular target: T1, TREK-1 channel (Homo sapiens, UniProt O95069); experiment: Whole-cell patch clamp of TREK-1 channel activity in transfected COS-7 cells; assay type: cell-based
T1 construct: expressed in transfected cells; host or cells: COS-7 cells (ATCC CRL-1651), DEAE-dextran transfection
T1 sequence (O95069 1-426): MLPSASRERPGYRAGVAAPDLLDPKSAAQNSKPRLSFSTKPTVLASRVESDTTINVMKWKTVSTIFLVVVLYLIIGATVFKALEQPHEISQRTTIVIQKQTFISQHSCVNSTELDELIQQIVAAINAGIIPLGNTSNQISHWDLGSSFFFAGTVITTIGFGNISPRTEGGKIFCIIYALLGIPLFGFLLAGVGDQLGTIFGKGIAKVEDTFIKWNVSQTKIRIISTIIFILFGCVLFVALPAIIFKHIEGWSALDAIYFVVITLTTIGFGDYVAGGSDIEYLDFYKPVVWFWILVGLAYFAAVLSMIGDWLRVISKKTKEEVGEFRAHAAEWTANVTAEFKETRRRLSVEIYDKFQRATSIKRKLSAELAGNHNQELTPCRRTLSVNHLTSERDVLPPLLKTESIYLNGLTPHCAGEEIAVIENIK
Experimental: All the experiments for measuring the effect of the propeptide were conducted on COS-7 cells (cell line derived from kidney fibroblasts of African green monkey Cercopithecus aethiops). These cells are sown at a density of 20 000 cells/dish with diameter of 35 mm, 24 hours before being transfected by the DEAE-dextran method with 1 μg of pIRES-EGFP-TREK-1 plasmid. Measurements of current were taken 48 to 72 hours after transfection.
Culture of the COS-7 cells. The COS-7 cells (ATCC reference: CRL-1651) are cultivated in DMEM medium (Gibco)/10% fetal calf serum (FCS, ICN), at 37° C. in the presence of 5% CO2.
Transfection using DEAE dextran. On day 1, the COS-7 cells are sown at 20 000 cells per 35-mm diameter dish containing 2 ml of culture medium. On day 2, the medium is removed and the cells are covered with 200 μl of PBS (Gibco) containing 1 μg of pIRES-EGFP-TREK-1 plasmid and 100 μg of DEAE-dextran (Sigma) then placed at 37° C./5% CO2. After incubation for 30 minutes, 2 ml of medium DMEM/10% NuSerum/80 μM chloroquin is added. After 3 hours, the medium is replaced with 2 ml of DMEM/10% FCS and the cells are incubated for 48 to 72 hours before being measured by electrophysiological methods.
Electrophysiological measurements: all the measurements are taken at room temperature, i.e. at 21-22° C. The cells that were transfected by the plasmid are detected from the fluorescence emitted by the EGFP after excitation at 480 nm.
The whole-cell patch clamp technique was used for measuring the activity of the TREK-1 channels. The equipment used is the RK 400 patch-clamp amplifier (Axon Instruments, U.S.A.). The patch pipettes with resistance of 1.3 to 8 MΩ are prepared from capillaries of borosilicate glass and are filled with a solution of 155 mM KCl, 3 mM MgCl2, 5 mM EGTA, 10 mM HEPES/KOH pH 7.2.
The cell culture medium is replaced with a solution of 150 mM NaCl, 5 mM KCl, 3 mM MgCl2, 1 mM CaCl2, 10 HEPES/NaOH pH 7.4 containing 10 mM tetraethyl ammonium chloride, 3 mM of 4-aminopyridin. The cells are perfused continuously with this solution. The rest potential of the membrane of the measured cell is fixed at −80 mV.
The variations in voltage are obtained either with a continuous ramp (from −100 to +50 mV) or by potential jumps of 10 mV (from −100 to +40 mV, 1.5 second per jump).
The data obtained were analyzed with the Pclamp software. The currents described in the appended FIG. 2B were obtained at 0 mV, the results expressed are the mean values±standard deviation. The IC50 value was obtained by plotting the experimental data with a sigmoidal function.
The activity of the channel is then measured by the patch-clamp technique in whole-cell configuration as described above.

## APLPRWSGPIGVSWGLR [propeptide, APLPRWSGPIGVSWGLR]
[1]
  effect on immobility time: comparable to those produced by fluoxetine
[2]; 10 μM arachidonic acid plus 100 μM of propeptide (130 pA/pF without propeptide)
  current density at 0 mV: 56 pA/pF
[2]; COS-7, read-out: inhibition of channel activity measured at 0 mV
  inhibition at 100 µM: 25%
[2]; activated by 10 μM arachidonic acid, measured at 0 mV, read-out: half-effect concentration (IC50) of inhibition of TREK-1 channel activity
  IC50: 70.7 nM
[2]; baseline conditions, 100 μM of propeptide (control 31 pA/pF)
  current density at 0 mV: 23 pA/pF
[2]; electrophysiology, FIG. 2
  activation of TREK-1 by arachidonic acid: blocked
